Reference: PubChem BioAssay AID256 (DTP/NCI, 2004)
Values joined by “and” are separate entries in the source; they are usually repeats but may differ in a detail not shown here. Equal entries are not always repeated. Inconclusive results and toxic doses are left out. The calls were made as follows: active = survival T/C of 150% or more; inactive = T/C below 125% in these data.

Test system: CD2F1 mice, L1210 leukemia ip, survival T/C
Test: NCI In Vivo Anticancer Drug Screen. Data for tumor model L1210 Leukemia (intraperitoneal) in CD2F1 (CDF1) mice
Settings: endpoint: mean survival time, higher = longer survival
Method in brief: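 Tumor-bearing mice (transplanted tumor) were split into treated and vehicle control groups, and the measured endpoint of each treated group was divided by that of its vehicle controls.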

[1] = dose: 100.0 mg/kg/injection, schedule: Q01DX009 (ip), vehicle: saline with Tween-80
[2] = dose: 200.0 mg/kg/injection, schedule: Q01DX009 (ip), vehicle: saline with Tween-80
[3] = dose: 400.0 mg/kg/injection, schedule: Q01DX009 (ip), vehicle: saline with Tween-80
[4] = dose: 100.0 mg/kg/injection, schedule: Q04DX003 (ip), vehicle: saline with Tween-80
[5] = dose: 200.0 mg/kg/injection, schedule: Q04DX003 (ip), vehicle: saline with Tween-80
[6] = dose: 400.0 mg/kg/injection, schedule: Q04DX003 (ip), vehicle: saline with Tween-80
[7] = dose: 100.0 mg/kg/injection, schedule: Q04DX002 (ip), vehicle: saline with Tween-80
[8] = dose: 200.0 mg/kg/injection, schedule: Q04DX002 (ip), vehicle: saline with Tween-80
[9] = dose: 400.0 mg/kg/injection, schedule: Q04DX002 (ip), vehicle: saline with Tween-80
[10] = dose: 12.5 mg/kg/injection, schedule: Q01DX009 (ip), vehicle: saline with Tween-80
[11] = dose: 25.0 mg/kg/injection, schedule: Q01DX009 (ip), vehicle: saline with Tween-80
[12] = dose: 50.0 mg/kg/injection, schedule: Q01DX009 (ip), vehicle: saline with Tween-80
[13] = dose: 50.0 mg/kg/injection, schedule: Q01DX009 (ip), vehicle: saline
[14] = dose: 100.0 mg/kg/injection, schedule: Q01DX009 (ip), vehicle: saline
[15] = dose: 75.0 mg/kg/injection, schedule: Q01DX001 (ip), vehicle: saline
[16] = dose: 150.0 mg/kg/injection, schedule: Q01DX001 (ip), vehicle: saline

Measured: T/C

COc1cc(N=C(N)N=C(N)N)c2ncccc2c1
inactive: dose: 100.0 mg/kg/injection, schedule: Q04DX002 (ip), vehicle: saline 90 % of control | dose: 200.0 mg/kg/injection, schedule: Q04DX002 (ip), vehicle: saline 90 % of control

Nc1nnnn1-c1cccc(Cl)c1
inactive: [1] 96 % of control | [2] 102 % of control | [3] 106 % of control

CC(=O)Nc1ccc(N=CN(C)C)cc1
inactive: [4] 95 % of control | [5] 95 % of control | [6] 112 % of control

C[N+](C)(C)c1cccc(S)c1
inactive: [7] 104 % of control | [8] 112 % of control | [9] 100 % of control

O=S=NNc1ccccc1
inactive: [10] 108 % of control | [11] 102 % of control | [12] 88 % of control and 90 % of control | [4] 95 % of control | [5] 89 % of control

CS(=O)(=O)c1cnnc2ccccc12
inactive: [4] 98 % of control | [5] 93 % of control | [6] 86 % of control

Cc1[nH]c(=O)c(Br)cc1Br
inactive: [4] 98 % of control | [5] 101 % of control | [6] 101 % of control

O=C(Nc1ccccn1)OCc1ccccc1
inactive: [7] 112 % of control | [8] 101 % of control | [9] 97 % of control

[Cl][Pt+2][Cl].[NH-]c1ccc(F)c(Cl)c1.[NH-]c1ccc(F)c(Cl)c1
inactive: dose: 3.13 mg/kg/injection, schedule: Q04DX003 (ip), vehicle: distilled water + Tween-80 108 % of control | dose: 6.25 mg/kg/injection, schedule: Q04DX003 (ip), vehicle: distilled water + Tween-80 103 % of control | dose: 12.5 mg/kg/injection, schedule: Q04DX003 (ip), vehicle: distilled water + Tween-80 110 % of control | dose: 25.0 mg/kg/injection, schedule: Q04DX003 (ip), vehicle: distilled water + Tween-80 110 % of control | dose: 50.0 mg/kg/injection, schedule: Q04DX003 (ip), vehicle: distilled water + Tween-80 110 % of control

CCOC(=O)c1c(O)c(=O)[nH]c2ccccc12
inactive: dose: 100.0 mg/kg/injection, schedule: Q01DX005 (ip), vehicle: saline with Tween-80 106 % of control | dose: 200.0 mg/kg/injection, schedule: Q01DX005 (ip), vehicle: saline with Tween-80 97 % of control | dose: 400.0 mg/kg/injection, schedule: Q01DX005 (ip), vehicle: saline with Tween-80 97 % of control

CC1CC(C)/C(=N/NC(N)=S)C(C(O)CC2CC(=O)NC(=O)C2)C1 (centres undefined)
inactive: dose: 25.0 mg/kg/injection, schedule: Q01DX009 (ip), vehicle: saline 94 % of control and 100 % of control | [13] 100 % of control and 102 % of control | [14] 97 % of control and 103 % of control | dose: 200.0 mg/kg/injection, schedule: Q01DX009 (ip), vehicle: saline 113 % of control and 102 % of control | dose: 400.0 mg/kg/injection, schedule: Q01DX009 (ip), vehicle: saline 113 % of control and 114 % of control

Cc1ccc(O)c(/C=N/NC(N)=S)n1
inactive: dose: 12.5 mg/kg/injection, schedule: Q03HX024 (ip), vehicle: saline 103 % of control | dose: 25.0 mg/kg/injection, schedule: Q03HX024 (ip), vehicle: saline 102 % of control | dose: 50.0 mg/kg/injection, schedule: Q03HX024 (ip), vehicle: saline 103 % of control

O=C(O)C[Se](=O)O
inactive: dose: 12.5 mg/kg/injection, schedule: Q01DX001 (ip), vehicle: saline with Tween-80 91 % of control | dose: 25.0 mg/kg/injection, schedule: Q01DX001 (ip), vehicle: saline with Tween-80 91 % of control

O=S(=O)(O)O.[Zr]
inactive: [15] 97 % of control | [16] 91 % of control

O=C(NCCC1CCC2OC2C1)c1ccccc1 (centres undefined)
inactive: [1] 96 % of control | [4] 107 % of control | [2] 98 % of control | [5] 100 % of control | [3] 96 % of control | [6] 94 % of control

O=C(O)C1C2OC(C(Br)C2Br)C1C(=O)O (centres undefined)
inactive: [13] 102 % of control | [14] 104 % of control

NNN1CCN(N)CC1
inactive: dose: 100.0 mg/kg/injection, schedule: Q01DX001 (ip), vehicle: saline with Tween-80 103 % of control | dose: 200.0 mg/kg/injection, schedule: Q01DX001 (ip), vehicle: saline with Tween-80 111 % of control | dose: 400.0 mg/kg/injection, schedule: Q01DX001 (ip), vehicle: saline with Tween-80 91 % of control

CCOC(=O)Nc1c(C)noc1NC(C)=O
inactive: [1] 95 % of control | [4] 94 % of control | [2] 95 % of control | [5] 94 % of control | [3] 104 % of control | [6] 94 % of control

CCCCCC/C=C/C(O)CC (centres undefined)
inactive: dose: 100.0 mg/kg/injection, schedule: Q04DX003 (ip), vehicle: saline 100 % of control | dose: 200.0 mg/kg/injection, schedule: Q04DX003 (ip), vehicle: saline 95 % of control | dose: 400.0 mg/kg/injection, schedule: Q04DX003 (ip), vehicle: saline 103 % of control

Cc1ccc2c(c1)nc1c3ccccc3nnn21
inactive: [15] 95 % of control | [16] 95 % of control

COC1=CCC2=C(C1)CC(C)O2 (centres undefined)
inactive: dose: 100.0 mg/kg/injection, schedule: Q01DX009 (ip), vehicle: acetone 102 % of control | dose: 200.0 mg/kg/injection, schedule: Q01DX009 (ip), vehicle: acetone 107 % of control

O=C(CNC(=O)NCc1ccco1)N/N=C/c1cc(Br)ccc1O
inactive: [10] 94 % of control | [11] 94 % of control | [12] 96 % of control | [2] 100 % of control

CCN(CC)N=Nc1ccccc1
inactive: [15] 114 % of control
